Like-named read-outs stand apart in the source and are kept apart here.
What was measured:
[1] = system: Zymoseptoria tritici; assay: Leaf blotch of wheat (SEPTTR) disease control on wheat seedlings; assay type: in vivo; conditions: High volume application, 100 ppm
Procedure: Example A: Evaluation of Fungicidal Activity: Leaf Blotch of Wheat (Zymoseptoria tritici; Bayer Code […]) Technical grades of materials were dissolved in acetone, which were then mixed with nine volumes of water containing 110 ppm Triton X-100. The fungicide solutions were applied onto wheat seedlings using an automated booth sprayer to run-off. All sprayed plants were allowed to air dry prior to further handling. All fungicides were evaluated using the aforementioned method for their activity vs. all target diseases, unless stated otherwise. Wheat leaf blotch and brown rust activity were also evaluated using track spray applications, in which case the fungicides were formulated as EC formulations, containing 0.1% Trycol 5941 in the spray solutions. Wheat plants (variety Yuma) were grown from seed in a greenhouse in 50% mineral soil/50% soil-less Metro mix until the first leaf was fully emerged, with 7-10 seedlings per pot. These plants were inoculated with an aqueous spore suspension of Zymoseptoria tritici either prior to or after fungicide treatments. After inoculation the plants were kept in 100% relative humidity (one day in a dark dew chamber followed by two to three days in a lighted dew chamber at 20° C.) to permit spores to germinate and infect the leaf. The plants were then transferred to a greenhouse set at 20° C. for disease to develop. When disease symptoms were fully expressed on the 1st leaves of untreated plants, infection levels were assessed on a scale of 0 to 100 percent disease severity. Percent disease control was calculated using the ratio of disease severity on treated plants relative to untreated plants.

[2] = system: Puccinia triticina; assay: Wheat brown rust (PUCCRT) disease control on wheat seedlings; assay type: in vivo; conditions: High volume application, 100 ppm
Procedure: Technical grades of materials were dissolved in acetone, which were then mixed with nine volumes of water containing 110 ppm Triton X-100. The fungicide solutions were applied onto wheat seedlings using an automated booth sprayer to run-off. All sprayed plants were allowed to air dry prior to further handling. All fungicides were evaluated using the aforementioned method for their activity vs. all target diseases, unless stated otherwise. Wheat leaf blotch and brown rust activity were also evaluated using track spray applications, in which case the fungicides were formulated as EC formulations, containing 0.1% Trycol 5941 in the spray solutions. Example B: Evaluation of Fungicidal Activity: Wheat Brown Rust (Puccinia triticina; Synonym: Puccinia recondita f. sp. tritici; Bayer Code PUCCRT) Wheat plants (variety Yuma) were grown from seed in a greenhouse in 50% mineral soil/50% soil-less Metro mix until the first leaf was fully emerged, with 7-10 seedlings per pot. These plants were inoculated with an aqueous spore suspension of Puccinia triticina either prior to or after fungicide treatments. After inoculation the plants were kept in a dark dew room at 22° C. with 100% relative humidity overnight to permit spores to germinate and infect the leaf. The plants were then transferred to a greenhouse set at 24° C. for disease to develop. Fungicide formulation, application and disease assessment followed the procedures as described in the Example A.

[3] = 24 h, 1 Day Protectant, read-out: SEPTTR disease control rating, 1DP
[4] = 72 h, 3 Day Curative, read-out: SEPTTR disease control rating, 3DC
[5] = 24 h, 1 Day Protectant, read-out: PUCCRT disease control rating, 1DP
[6] = 72 h, 3 Day Curative, read-out: PUCCRT disease control rating, 3DC

Structure (SMILES)	pest or weed control at 100 ppm [1, 3] [%]	pest or weed control at 100 ppm [1, 4] [%]	pest or weed control at 100 ppm [2, 5] [%]	pest or weed control at 100 ppm [2, 6] [%]
COc1ccnc(C(=O)N[C@H](C)C(=O)O[C@@H](C)[C@H](C)c2ccc(F)cc2C)c1O [Example 149]	< 80	< 80	< 0	< 0
COc1ccnc(C(=O)N[C@@H](C)C(=O)O[C@@H](C)[C@@H](C)c2c(C)cccc2C)c1O [Example 166]	> 80	> 80	> 80	> 80
COc1ccc([C@H](C)[C@H](C)OC(=O)[C@@H](NC(=O)c2nccc(OC)c2O)C(C)C)c(C)c1 [Example 142]	> 80	< 80	> 80	> 80
COc1ccnc(C(=O)NCC(=O)O[C@H](C)[C@H](C)c2ccc(F)cc2C)c1O [Example 123]	< 0	< 80	> 80	< 80
COc1ccc([C@@H](C)[C@@H](C)OC(=O)[C@H](C)NC(=O)c2nccc(OC)c2O)c(C)c1 [Example 137]	< 80	< 80	> 80	< 80
COc1ccnc(C(=O)N[C@@H](C)C(=O)O[C@H](C)[C@H](C)c2ccccc2C(F)(F)F)c1O [Example 161]	< 80	< 80	< 0	< 0
COc1ccnc(C(=O)N[C@H](C)C(=O)O[C@@H](C)[C@H](C)c2ccccc2C)c1O [Example 150]	< 80	< 80	< 0	< 80
COc1ccnc(C(=O)N[C@H](C(=O)O[C@H](C)[C@@H](C)c2ccccc2C)C(C)C)c1O [Example 145]	< 80	< 80	< 80	< 80
COc1ccnc(C(=O)N[C@@H](C)C(=O)O[C@H](C)[C@H](C)c2ccc(F)cc2C)c1O [Example 133]	< 80	< 80	> 80	< 80
COc1ccnc(C(=S)N[C@@H](C)C(=O)O[C@@H](C)[C@@H](C)C2CCCC2)c1O [Example 269]	< 80	< 80	< 80	> 80
COc1ccnc(C(=O)N[C@@H](C)C(=O)O[C@@H](C)[C@H](C)c2ccccc2C)c1O [Example 130]	< 80	< 80	> 80	> 80
COc1ccnc(C(=O)N[C@@H](C)C(=O)O[C@H](C)[C@H](C)c2ccc(F)cc2C(F)(F)F)c1O [Example 162]	< 80	< 80	< 0	< 0
COc1ccnc(C(=O)N[C@@H](C)C(=O)O[C@@H](C)[C@@H](C)c2ccc(C)s2)c1O [Example 172]	< 80	< 80	< 80	> 80
COc1ccnc(C(=O)N[C@@H](C)C(=O)OC(C)C(C)c2c(C)cccc2C)c1O (some centres unmarked) [Example 164]	< 80	> 80	> 80	> 80
COc1ccnc(C(=O)N[C@H](C)C(=O)O[C@H](C)[C@H](C)c2ccc(F)cc2)c1O [Example 156]	< 80	< 80	< 0	< 80
COc1ccnc(C(=O)N[C@H](C(=O)O[C@@H](C)[C@@H](C)c2ccc(F)cc2C)C(C)C)c1O [Example 138]	> 80	< 80	> 80	> 80

Structure (SMILES)	pest or weed control at 100 ppm [1, 3] [%]	pest or weed control at 100 ppm [1, 4] [%]	pest or weed control at 100 ppm [2, 5] [%]	pest or weed control at 100 ppm [2, 6] [%]
COc1ccnc(C(=O)NCC(=O)O[C@H](C)[C@H](C)c2ccc(F)cc2)c1O [Example 126]	< 0	< 80	> 80	< 80
COc1ccnc(C(=O)N[C@H](C(=O)O[C@H](C)[C@H](C)c2ccc(F)cc2)C(C)C)c1O [Example 146]	> 80	< 80	> 80	< 80
COc1ccnc(C(=O)N[C@@H](C)C(=O)O[C@@H](C)[C@@H](C)c2ccccc2)c1O [Example 171]	< 80	< 80	> 80	> 80
COc1ccnc(C(=O)N[C@H](C)C(=O)O[C@H](C)[C@@H](C)c2ccccc2C)c1O [Example 155]	< 80	< 80	< 80	< 80
COc1cc(F)ccc1[C@@H](C)[C@@H](C)OC(=O)[C@H](C)NC(=O)c1nccc(OC)c1O [Example 173]	< 80	< 80	> 80	< 80
COc1ccnc(C(=O)N[C@H](C(=O)O[C@@H](C)[C@H](C)c2ccccc2C)C(C)C)c1O [Example 140]	< 80	< 80	> 80	< 80
COc1ccnc(C(=O)N[C@H](C)C(=O)O[C@H](C)[C@H](C)c2ccc(F)cc2C)c1O [Example 153]	< 80	< 80	< 80	< 80
COc1ccccc1[C@H](C)[C@H](C)OC(=O)[C@H](C)NC(=O)c1nccc(OC)c1O [Example 170]	< 80	< 80	> 80	> 80
COc1ccnc(C(=O)NCC(=O)O[C@@H](C)[C@H](C)c2ccc(F)cc2C)c1O [Example 119]	< 0	< 80	> 80	< 80
COc1ccnc(C(=O)N[C@H](C(=O)O[C@H](C)[C@H](C)c2ccc(F)cc2C)C(C)C)c1O [Example 143]	< 80	< 80	> 80	< 0
COc1ccnc(C(=O)NCC(=O)O[C@@H](C)[C@@H](C)c2ccc(F)cc2)c1O [Example 121]	< 0	< 80	> 80	> 80
COc1ccnc(C(=O)NCC(=O)O[C@@H](C)[C@@H](C)c2ccc(F)cc2C)c1O [Example 118]	< 0	< 80	> 80	> 80
COc1ccc([C@H](C)[C@H](C)OC(=O)[C@@H](C)NC(=O)c2nccc(OC)c2O)c(C)c1 [Example 152]	< 80	< 80	> 80	< 80
COc1ccnc(C(=O)NCC(=O)O[C@@H](C)[C@H](C)c2ccccc2C)c1O [Example 120]	< 0	< 80	< 80	< 80
COc1ccnc(C(=S)N[C@@H](C)C(=O)O[C@@H](C)[C@@H](C)c2ccccc2C(F)(F)F)c1O [Example 267]	< 80	< 80	> 80	< 80
COc1ccnc(C(=O)N[C@@H](C)C(=O)OC(C)C(C)c2c(C)cc(F)cc2C)c1O (some centres unmarked) [Example 165]	> 80	> 80	> 80	> 80
